US11168058B2, “Manufacture of a crystalline pharmaceutical product” (ORION CORPORATION, priority 2017, dated 2021)

Experiments:
Format in all cases: physicochemical
[1] = Specific surface area (SSA) by three-point nitrogen adsorption (BET), TriStar 3000; conditions: for SSA: Table 1, batch A; for SSA / Specific surface area: crystalline rounded particles before/after milling; for Specific surface area: Table 2, batch B
Method: The specific surface area (SSA) of crystalline particles of compound (I) can be analyzed using the three-point nitrogen adsorption technique based on the Brunauer, Emmett and Teller (BET) theory, for example using TriStar 3000 automated gas adsorption analyzer, (Micromeritics, Inc.). The samples are suitably vacuum dried for 20 hours at 40° C. The volumetric method can be used at the relative pressure range of 0.1-0.3 P/P0.
(§1) The specific surface area (SSA) and particle size distribution (PSD) were determined for two batches (A and B) of crystalline rounded particles of compound (I) prepared according to the present invention. The particles of the two batches were then milled followed by the determination of SSA and PSD.
The specific surface area was measured using the three-point nitrogen adsorption technique based on the Brunauer, Emmett and Teller (BET) theory using TriStar 3000 automated gas adsorption analyzer (Micromeritics, Inc.). The samples were vacuum dried for 20 hours in 40° C. The volumetric method was applied at the relative pressure range 0.1-0.3 P/P0.

[2] = Particle size distribution by laser light diffraction (Beckman Coulter LS13320, dry powder); conditions: for Volume particle size, Dv10 / Volume particle size, Dv50 / Volume particle size, Dv90: before/after milling
Method: The particle size distribution of crystalline particles of compound (I) can be analyzed by laser light diffraction, for example using Beckman Coulter LS13320 laser diffraction particle size analyzer equipped with Tornado Dry Powder System using air as dispersion medium with measurement pressure 24″H2O±2″H2O, sample amount 10 ml, system controlled target 5% for obscuration and applying Fraunhofer optical model.
The parameters considered are the volumetric diameters in μm of the 10th, 50th and 90th percentiles of the particles, expressed as Dv10, Dv50 and Dv90 respectively, which are determined by assuming that the particles have a geometric shape equivalent to a sphere.
The particle size distribution of the crystalline rounded particles of compound (I) prepared according to the present invention was determined by laser light diffraction. The determination was carried out by using Beckman Coulter LS13320 laser diffraction particle size analyzer equipped with Tornado Dry Powder System using air as dispersion medium with measurement pressure 24″H2O±2″H2O, sample amount 10 ml, system controlled target 5% for obscuration and applying Fraunhofer optical model. According to the analysis, Dv10 value of the particles is 359 μm, Dv50 is 632 μm and Dv90 is 925 μm.
as §1

[3] = Solubility in water (statement)
[4] = Example 4, crystalline rounded particles, FIG. 1

With `CC(O)c1cc(C(=O)N[C@@H](C)Cn2ccc(-c3ccc(C#N)c(Cl)c3)n2)n[nH]1` (stereo partly drawn) [A (milled)] the SSA [1] was 14 m^2/g, the “Volume particle size, Dv10” value ([2]; Table 1, batch A) was 2 μm and the “Volume particle size, Dv50” value ([2]; Table 1, batch A) was 36 μm. For the same molecule, the “Volume particle size, Dv90” value ([2]; Table 1, batch A) was 218 μm.
With `CC(O)c1cc(C(=O)N[C@@H](C)Cn2ccc(-c3ccc(C#N)c(Cl)c3)n2)n[nH]1` (stereo partly drawn) [A (unmilled)] the SSA [1] was 13 m^2/g, the “Volume particle size, Dv10” value ([2]; Table 1, batch A) was 171 μm and the “Volume particle size, Dv50” value ([2]; Table 1, batch A) was 407 μm. For the same molecule, the “Volume particle size, Dv90” value ([2]; Table 1, batch A) was 625 μm.
With `CC(O)c1cc(C(=O)N[C@@H](C)Cn2ccc(-c3ccc(C#N)c(Cl)c3)n2)n[nH]1` (stereo partly drawn) [B (milled)] the Specific surface area [1] was 13 m^2/g, the “Volume particle size, Dv10” value ([2]; Table 2, batch B) was 3 μm and the “Volume particle size, Dv50” value ([2]; Table 2, batch B) was 96 μm. The “Volume particle size, Dv90” value ([2]; Table 2, batch B) was 292 μm.
With `CC(O)c1cc(C(=O)N[C@@H](C)Cn2ccc(-c3ccc(C#N)c(Cl)c3)n2)n[nH]1` (stereo partly drawn) [B (unmilled)] the Specific surface area [1] was 12 m^2/g, the “Volume particle size, Dv10” value ([2]; Table 2, batch B) was 176 μm and the “Volume particle size, Dv50” value ([2]; Table 2, batch B) was 389 μm. For the same molecule, the “Volume particle size, Dv90” value ([2]; Table 2, batch B) was 826 μm.
For `CC(O)c1cc(C(=O)N[C@@H](C)Cn2ccc(-c3ccc(C#N)c(Cl)c3)n2)n[nH]1` (stereo partly drawn) [compound (I), N—((S)-1-(3-(3-chloro-4-cyanophenyl)-1H-pyrazol-1-yl)-propan-2-yl)-5-(1-hydroxyethyl)-1H-pyrazole-3-carboxamide], the “Change of specific surface area (SSA) on milling to reduced particle size” value ([1]; batches A and B, milled vs unmilled) was “did not significantly change”, the Dv10 [2, 4] was 359 μm and the Dv50 [2, 4] was 632 μm. The Dv90 [2, 4] was 925 μm and the Solubility in water [3] was “poorly soluble in water”.
